Laboratory results taken from patent publication US10208019B2, “GLP-1 receptor agonists and uses thereof” (Pfizer Inc., priority 2016, dated 2019).
Where two headings read alike, the source gives them in different places. One block for each compound: values may come before it.

Legend:
human GLP-1R [1] = target: human GLP-1R (Homo sapiens, UniProt P43220, G168S); experiment: CHO GLP-1R Clone H6—Assay 1: HTRF cAMP cell-based functional agonist assay (high GLP-1R density); conditions: for EC50: CHO GLP-1R Clone H6, cAMP HTRF, geometric mean; for Emax: read-out: Assay 1 Emax (%), CHO GLP-1R Clone H6, relative to saturating concentration of full agonist GLP-1 (1 μM), arithmetic mean
Sequence of human GLP-1R (Homo sapiens, UniProt P43220, G168S) (P43220 24-463 G168S limits assumed): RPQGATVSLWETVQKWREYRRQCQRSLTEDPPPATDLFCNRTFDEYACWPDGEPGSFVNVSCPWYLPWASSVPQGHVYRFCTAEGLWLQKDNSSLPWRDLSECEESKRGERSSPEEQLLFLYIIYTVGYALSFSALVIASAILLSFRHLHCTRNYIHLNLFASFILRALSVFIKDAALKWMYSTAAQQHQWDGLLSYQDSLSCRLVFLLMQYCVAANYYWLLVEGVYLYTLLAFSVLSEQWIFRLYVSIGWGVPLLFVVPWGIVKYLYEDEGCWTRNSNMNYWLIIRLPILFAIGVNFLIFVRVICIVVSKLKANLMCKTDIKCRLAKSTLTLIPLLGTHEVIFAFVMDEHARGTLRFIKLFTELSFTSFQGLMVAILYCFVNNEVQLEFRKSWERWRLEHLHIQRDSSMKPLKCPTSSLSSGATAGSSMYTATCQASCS

human GLP-1R [2] = target: human GLP-1R (Homo sapiens (Human), UniProt P43220, L260F); experiment: CHO GLP-1R Clone C6—Assay 2: HTRF cAMP cell-based functional agonist assay (low GLP-1R density); conditions: for EC50: CHO GLP-1R Clone C6, cAMP HTRF, geometric mean; for Emax: CHO GLP-1R Clone C6, relative to saturating concentration of full agonist GLP-1 (1 μM), arithmetic mean, read-out: Assay 2 Emax (%)
Sequence of human GLP-1R (Homo sapiens (Human), UniProt P43220, L260F) (P43220 24-463 L260F): as the sequence (P43220 24-463 G168S limits assumed) above, with S145G, L237F counted along it
Protocol: GLP-1R-mediated agonist activity was determined with a cell-based functional assay utilizing an HTRF (Homogeneous Time-Resolved Fluorescence) cAMP detection kit (cAMP HI Range Assay Kit; Cis Bio cat #62AM6PEJ) that measures cAMP levels in the cell. The method is a competitive immunoassay between native cAMP produced by the cells and exogenous cAMP labeled with the dye d2. The tracer binding is visualized by a mAb anti-cAMP labeled with Cryptate. The specific signal (i.e. energy transfer) is inversely proportional to the concentration of cAMP in either a standard or an experimental sample.
The human GLP-1R coding sequence (NCBI Reference Sequence NP_002053.3, including naturally-occurring variant Leu260Phe) was subcloned into pcDNA5-FRT-TO and a clonal CHO cell line stably expressing a low receptor density was isolated using the Flp-In™ T-Rex™ System, as described by the manufacturer (ThermoFisher).
Cells were removed from cryopreservation, re-suspended in 40 mL of Dulbecco's Phosphate Buffered Saline (DPBS-Lonza Cat #17-512Q) and centrifuged at 800×g for 5 min at 22° C. The DPBS was aspirated, and the cell pellet was re-suspended in 10 mL of complete growth medium (DMEM:F12 1:1 Mixture with HEPES, L-Gln, 500 mL (DMEM/F12 Lonza Cat #12-719F), 10% heat inactivated fetal bovine serum (Gibco Cat #16140-071), 5 mL of 100× Pen-Strep (Gibco Cat #15140-122), 5 mL of 100× L-Glutamine (Gibco Cat #25030-081), 700 μg/mL Hygromycin (Invitrogen Cat #10687010) and 15 μg/mL Blasticidin (Gibco Cat #R21001). A 1 mL sample of the cell suspension in growth media was counted on a Becton Dickinson ViCell to determine cell viability and cell count per mL. The remaining cell suspension was then adjusted with growth media to deliver 1600 viable cells per well using a Matrix Combi Multidrop reagent dispenser, and the cells were dispensed into a white 384 well tissue culture treated assay plate (Corning 3570). The assay plate was then incubated for 48 h at 37° C. in a humidified environment (95% O2, 5% CO2)
Varying concentrations of each compound to be tested (in DMSO) were diluted in assay buffer [HBSS with Calcium/Magnesium (Lonza/BioWhittaker cat #10-527F)/0.1% BSA (Sigma Aldrich cat #A7409-1L)/20 mM HEPES (Lonza/BioWhittaker cat #17-737E)] containing 100 μM 3-isobutyl-1-methylxanthin (IBMX; Sigma cat #15879). The final DMSO concentration in the compound/assay buffer mixture is 1%.
After 48 h, the growth media was removed from the assay plate wells, and the cells were treated with 20 μL of the serially diluted compound in assay buffer for 30 min at 37° C. in a humidified environment (95% O2, 5% CO2). Following the 30 min incubation, 10 μL of labeled d2 cAMP and 10 μL of anti-cAMP antibody (both diluted 1:20 in cell lysis buffer; as described in the manufacturer's assay protocol) were added to each well of the assay plate. The plates were then incubated at room temperature and after 60 minutes, changes in the HTRF signal were read with an Envision 2104 multi-label plate reader using excitation of 330 nm and emissions of 615 and 665 nm. Raw data were converted to nM cAMP by interpolation from a cAMP standard curve (as described in the manufacturer's assay protocol) and the percent effect was determined relative to a saturating concentration of the full agonist GLP-1 (1 μM) included on each plate. EC50 determinations were made from agonist dose response curves analyzed with a curve fitting program using a 4-parameter logistic dose response equation.

EC50 (human GLP-1R [1]; read-out: Assay 1 EC50): 0.28 nM
Emax (human GLP-1R [1]): 84%
EC50 (human GLP-1R [2]): 3.2 nM
Emax (human GLP-1R [2]): 84%
Compound: C[C@H]1CN(c2cccc(OCc3ccc(Cl)cc3F)n2)CCN1Cc1nc2ccc(C(=O)O)cc2n1C[C@@H]1CCO1 [Example 1A-19, 2-{[(2S)-4-{6-[(4-chloro-2-fluorobenzyl)oxy]pyridin-2-yl}-2-methylpiperazin-1-yl]methyl}-1-[(2S)-oxetan-2-ylmethyl]-1H-benzimidazole-6-carboxylic acid]

EC50 (human GLP-1R [1]; Assay 1 EC50 (nM)): 54 nM
Emax (human GLP-1R [1]): 81%
EC50 (human GLP-1R [2]): 2100 nM
Emax (human GLP-1R [2]): 100%
Compound: COCCn1c(CN2CCN(c3cccc(OCc4ccc(Cl)cc4F)n3)C[C@H]2C)nc2ccc(C(=O)O)cc21 [Example 12A-11, 2-{[(2R)-4-{6-[(4-chloro-2-fluorobenzyl)oxy]pyridin-2-yl}-2-methylpiperazin-1-yl]methyl}-1-(2-methoxyethyl)-1H-benzimidazole-6-carboxylic acid]

EC50 (human GLP-1R [1]; read-out: Assay 1 EC50): 4.1 nM
Emax (human GLP-1R [1]): 67%
EC50 (human GLP-1R [2]): 170 nM
Emax (human GLP-1R [2]): 75%
Compound: C[C@H]1CN(c2cccc(OCc3ccc(Cl)cc3F)n2)CCN1Cc1nc2ccc(C(=O)O)cc2n1Cc1cocn1 [Example 10A-13]

EC50 (human GLP-1R [1]; read-out: Assay 1 EC50): 14 nM
Emax (human GLP-1R [1]): 80%
EC50 (human GLP-1R [2]): 270 nM
Emax (human GLP-1R [2]): 92%
Compound: CCOC(C)Cn1c(CN2CCC(c3cccc(OCc4ccc(Cl)cc4F)n3)CC2)nc2ccc(C(=O)O)cc21 (stereo not drawn) [Example 11A-18, 2-[(4-{6-[(4-chloro-2-fluorobenzyl)oxy]pyridin-2-yl}piperidin-1-yl)methyl]-1-(2-ethoxypropyl)-1H-benzimidazole-6-carboxylic acid]

EC50 (human GLP-1R [1]; read-out: Assay 1 EC50): 2.9 nM
Emax (human GLP-1R [1]): 96%
EC50 (human GLP-1R [2]): 28 nM
Emax (human GLP-1R [2]): 97%
Compound: CCn1nncc1Cn1c(CN2CCN(c3cccc(OCc4ccc(C#N)cc4F)n3)CC2)nc2ccc(C(=O)O)cc21 [Example 10A-62, 2-[(4-{6-[(4-cyano-2-fluorobenzyl)oxy]pyridin-2-yl}piperazin-1-yl)methyl]-1-[(1-ethyl-1H-1,2,3-triazol-5-yl)methyl]-1H-benzimidazole-6-carboxylic acid]

EC50 (human GLP-1R [1]; read-out: Assay 1 EC50): 63 nM
Emax (human GLP-1R [1]): 78%
EC50 (human GLP-1R [2]): 2000 nM
Emax (human GLP-1R [2]): 82%
Compound: O=C(O)c1ccc2nc(CN3CCC(c4cccc(OCc5ccc(Cl)cc5F)n4)CC3)n(C[C@H]3CCCO3)c2c1 [Example 11A-68, 2-[(4-{6-[(4-chloro-2-fluorobenzyl)oxy]pyridin-2-yl}piperidin-1-yl)methyl]-1-[(2R)-tetrahydrofuran-2-ylmethyl]-1H-benzimidazole-6-carboxylic acid]

EC50 (human GLP-1R [1]; Assay 1 EC50 (nM)): 300 nM
Emax (human GLP-1R [1]): 92%
EC50 (human GLP-1R [2]): 7700 nM
Emax (human GLP-1R [2]): 100%
Compound: CO[C@H]1C[C@@H](Cn2c(CN3CCC(c4cccc(OCc5ccc(Cl)cc5F)n4)CC3)nc3ccc(C(=O)O)cc32)C1 [Example 1A-28, 2-[(4-{6-[(4-chloro-2-fluorobenzyl)oxy]pyridin-2-yl}piperidin-1-yl)methyl]-1-[(cis-3-methoxycyclobutyl)methyl]-1H-benzimidazole-6-carboxylic acid]

EC50 (human GLP-1R [1]; read-out: Assay 1 EC50): 0.5 nM
Emax (human GLP-1R [1]): 73%
EC50 (human GLP-1R [2]): 22 nM
Emax (human GLP-1R [2]): 96%
Compound: O=C(O)c1ccc2nc(CN3CCC(c4cccc(OCc5ccc(Cl)cc5F)n4)CC3)n(C[C@@H]3CCO3)c2n1 [Example 2A-23, 2-[(4-{6-[(4-chloro-2-fluorobenzyl)oxy]pyridin-2-yl}piperidin-1-yl)methyl]-3-[(2S)-oxetan-2-ylmethyl]-3H-imidazo[4,5-b]pyridine-5-carboxylic acid]

Emax (human GLP-1R [1]): 75%
Emax (human GLP-1R [2]): 67%
Compound: COCCn1c(CN2CCN(c3nc(OCc4ccc(Cl)cc4F)ccc3F)CC2)nc2ccc(C(=O)O)cc21 [Example 1A-05, 2-[(4-{6-[(4-chloro-2-fluorobenzyl)oxy]-3-fluoropyridin-2-yl}piperazin-1-yl)methyl]-1-(2-methoxyethyl)-1H-benzimidazole-6-carboxylic acid]

Further lines, the compound ahead of its results:

Compound: O=C(O)c1ccc2nc(CN3CCC(c4cccc(OCc5ccc(Cl)cc5F)n4)CC3)n(CCC(F)(F)F)c2c1 [Example 11A-73, 2-[(4-{6-[(4-chloro-2-fluorobenzyl)oxy]pyridin-2-yl}piperidin-1-yl)methyl]-1-(3,3,3-trifluoropropyl)-1H-benzimidazole-6-carboxylic acid]
EC50 (human GLP-1R [1]; read-out: Assay 1 EC50): 150 nM
Emax (human GLP-1R [1]): 68%
EC50 (human GLP-1R [2]): 5300 nM
Emax (human GLP-1R [2]): 80%

Compound: COCCn1c(CN2CCC(c3ccc(F)c(OCc4ccc(Cl)cc4F)n3)CC2)nc2ccc(C(=O)O)cc21 [Example 1A-04, 2-[(4-{6-[(4-chloro-2-fluorobenzyl)oxy]-5-fluoropyridin-2-yl}piperidin-1-yl)methyl]-1-(2-methoxyethyl)-1H-benzimidazole-6-carboxylic acid]
EC50 (human GLP-1R [1]; read-out: Assay 1 EC50): 21 nM
Emax (human GLP-1R [1]): 79%
EC50 (human GLP-1R [2]): 350 nM
Emax (human GLP-1R [2]): 82%

Compound: CCn1cncc1Cn1c(CN2CCC(c3cccc(OCc4ccc(F)cc4F)n3)CC2)nc2ccc(C(=O)O)cc21 [Example 10A-32, 2-[(4-{6-[(2,4-difluorobenzyl)oxy]pyridin-2-yl}piperidin-1-yl)methyl]-1-[(1-ethyl-1H-imidazol-5-yl)methyl]-1H-benzimidazole-6-carboxylic acid]
EC50 (human GLP-1R [1]; read-out: Assay 1 EC50): 0.47 nM
Emax (human GLP-1R [1]): 77%
EC50 (human GLP-1R [2]): 5 nM
Emax (human GLP-1R [2]): 94%

Compound: COCCn1c(CN2CCC(c3cccc(OCc4ccc(Cl)cc4F)n3)CC2)nc2cnc(C(=O)O)cc21 [Example 2A-07, 2-[(4-{6-[(4-chloro-2-fluorobenzyl)oxy]pyridin-2-yl}piperidin-1-yl)methyl]-1-(2-methoxyethyl)-1H-imidazo[4,5-c]pyridine-6-carboxylic acid]
EC50 (human GLP-1R [1]; read-out: Assay 1 EC50): 140 nM
Emax (human GLP-1R [1]): 72%
EC50 (human GLP-1R [2]): 1600 nM
Emax (human GLP-1R [2]): 46%

Compound: C[C@H]1CN(c2cccc(OCc3ccc(Cl)cc3F)n2)CCN1Cc1nc2ccc(C(=O)O)cc2n1Cc1cnco1 [Example 10A-16, 2-{[(2S)-4-{6-[(4-chloro-2-fluorobenzyl)oxy]pyridin-2-yl}-2-methylpiperazin-1-yl]methyl}-1-(1,3-oxazol-5-ylmethyl)-1H-benzimidazole-6-carboxylic acid]
EC50 (human GLP-1R [1]; read-out: Assay 1 EC50): 1.7 nM
Emax (human GLP-1R [1]): 67%
EC50 (human GLP-1R [2]): 45 nM
Emax (human GLP-1R [2]): 83%

Compound: Cc1ccn(CCn2c(CN3CCC(c4cccc(OCc5ccc(Cl)cc5F)n4)CC3)nc3ccc(C(=O)O)cc32)n1 [Example 11A-31, 2-[(4-{6-[(4-chloro-2-fluorobenzyl)oxy]pyridin-2-yl}piperidin-1-yl)methyl]-1-[2-(3-methyl-1H-pyrazol-1-yl)ethyl]-1H-benzimidazole-6-carboxylic acid]
EC50 (human GLP-1R [1]; read-out: Assay 1 EC50): 72 nM
Emax (human GLP-1R [1]): 76%
EC50 (human GLP-1R [2]): 1500 nM
Emax (human GLP-1R [2]): 81%

Compound: O=C(O)c1ccc2nc(CN3CCC(c4cccc(OCc5ccc(Cl)cc5F)n4)CC3)n(Cc3ncco3)c2c1 [Example 10A-42, 2-[(4-{6-[(4-chloro-2-fluorobenzyl)oxy]pyridin-2-yl}piperidin-1-yl)methyl]-1-(1,3-oxazol-2-ylmethyl)-1H-benzimidazole-6-carboxylic acid]
EC50 (human GLP-1R [1]; read-out: Assay 1 EC50): 2.7 nM
Emax (human GLP-1R [1]): 73%
EC50 (human GLP-1R [2]): 29 nM
Emax (human GLP-1R [2]): 74%

Compound: Cn1cncc1Cn1c(CN2CCC(c3cccc(OCc4ccc(F)cc4F)n3)CC2)nc2ccc(C(=O)O)cc21 [Example 1A-17, 2-[(4-{6-[(2,4-difluorobenzyl)oxy]pyridin-2-yl}piperidin-1-yl)methyl]-1-[(1-methyl-1H-imidazol-5-yl)methyl]-1H-benzimidazole-6-carboxylic acid]
EC50 (human GLP-1R [1]; read-out: Assay 1 EC50): 2.4 nM
Emax (human GLP-1R [1]): 87%
EC50 (human GLP-1R [2]): 45 nM
Emax (human GLP-1R [2]): 95%
